Experimental data from patent US20180030483A1, “PROCESS FOR PRODUCTION OF BIO-ALCOHOL” (DANISCO US INC., priority 2015, published 2018).
Like-named read-outs stand apart in the source and are kept apart here.

Key:
[1] = tested on: Saccharomyces cerevisiae; details: molasses media, 0 to 1000 ppm, 3 g active dry yeast, 32° C.
Description: Molasses Medium: The media was prepared by diluting 333 g molasses with water to final weight of 1000 g (w/w). To this 400 mg of urea was added as nitrogen source.
Saccharomyces cerevisiae was used in the form of active dry yeast at a concentration of 3% w/v or was pre-cultured by adding 6 g of active dry yeast into 100 ml YEGM in 250 ml Erlenmeyer's flask. The cultures were incubated at 32° C.±2° C. with mixing at 100 to 200 rpm to a final OD660 of 100±10. This culture was subsequently used as an inoculum for further fermentation studies at a concentration of 6% v/v.
The composition of the reaction products was measured by high pressure liquid chromatographic method (Agilent Isocratic system 1200, USA with RI detector) by injecting 20 μL of appropriately diluted samples onto a Aminex Column HPX-87H (catalogue number 1250140, Bio-Rad) maintained at 60° C. using 0.01N sulphuric acid as a mobile phase at a flow rate of 0.7 mL/min. The detection was carried out using Refractive index detector (RID).
Fermentation was carried out at 32° C.±2° C. in incubator shaker at 100-200 rpm. The fermentation was carried out until glucose value observed was less than 0.1% w/v. Thereafter, the samples were analysed for alcohol, organic acids, and glycerol profile by HPLC.
Batch fermentation was initiated by addition of sodium benzoate at a concentration ranging from 0 to 1000 ppm followed by 3 g of active dry yeast into 100 ml molasses media in 250 mL Erlenmeyer flasks. Fermentation was carried out in incubator shaker at 32° C.±2° C. at 100 to 200 rpm. Thereafter, the samples were analysed for alcohol, organic acids, and glycerol profile by HPLC.
Fermentation was carried out at 32° C.±2° C. in incubator shaker at 100 to 200 rpm. The fermentation was carried out until glucose value observed was less than 0.1% w/v. Thereafter, the samples were analysed for alcohol, organic acids, and glycerol profile by HPLC.

[2] = tested on: Saccharomyces cerevisiae; assay: Batch yeast fermentation in YEGM medium with added organic acid salt; format: cell-based; details: increasing concentration 0 to 1000 ppm; for increase in ethanol production: 32° C., until glucose less than 0.1% w/v; for yeast growth: biomass by OD660
Description: Yeast Extract Glucose media (YEGM): YEGM was prepared by dissolving 0.75 g Yeast Extract and 10 g dextrose dissolved in 100 ml tap water with pH in range […]. The media was then sterilized at 121° C. for 20 min.
The yeast biomass was measured using UV-Vis spectrophotometers (Shimadzu UV-1800) by diluting with YEGM to an OD660 in range of 0.2 to 0.8 with Milli-Q water.
Thereafter, the samples were analysed for alcohol and glycerol profile by HPLC and yeast biomass by UV Spectrophotometer.

Row | Compound | acetic acid yield [1] | ethanol production [1] | glycerol yield [1] | glycerol yield [2] | increase in ethanol production [2] | yeast growth [2]
1 | C/C=C/C=C/C(=O)[O-].[K+] [potassium sorbate] | reduced | increased | reduced | reduced | ≥ 6% | reduced
2 | O=C([O-])c1ccccc1.[Na+] [sodium benzoate] |  | increased | reduced | reduced | ≥ 6% | reduced
